Measurements: patent US20240041976A1, “COMPOSITION AND USE” (priority 2020, published 2024)

What was measured:
Assay in all cases: microbe, parasite or virus in culture
[1] = test system: S. haemolyticus 4071; conditions: for MIC of the component in combination: 4071
Protocol: (§1) Growth inhibition assays were performed in 96-well microtiter plates as described previously (Chi and Holo, 2018, supra). Briefly, 135 μl of TSB were dispensed in each well of a microtiter plate (according to the number of bacterial strains tested) except in the wells of the first row. The antimicrobials were diluted in TSB to working concentrations in a final volume of 285 μl and dispensed in the wells of the first row. The working concentrations were 100 μg/μl for garvicin KS, 10 μg/μl for micrococcin P1 and 1 mg/ml for penicillin G. From the first row, 150 μl of the antimicrobials were then serially diluted (two-fold dilutions) in a sequential fashion until the last row of the plate. Finally, 15 μl of a fresh O/N culture of each strain were added in the appropriate wells to reach a final volume of 150 μl in each well. The plates were then incubated at 37° C. for 24 h. The growth inhibition was expressed as minimum inhibitory concentration (MIC50), which refers to the minimum concentration of the antimicrobial needed to reduce at least 50% of the microbial growth compared to the untreated control. The MIC50 was assessed by optical density readings at 600 nm (O.D.600).
(§2) Synergistic interactions between antimicrobials were determined using the fractional inhibition concentration (FIC). The FIC values were calculated as follows: the sum of the FIC =FICa+FICb+FICc, where the FICa means MIC of A in combination/MIC of A alone, FICb means MIC of B in combination/MIC of B, and FICc means MIC of C in combination/MIC of C alone. Effects were considered as synergistic if FIC was ≤0.5 for two components mixture and ≤0.75 for three components mixture.
(§3) Bacteriocins and antimicrobial assays. […] These bacteriocins were all solubilized in 0.1% (vol/vol) trifluoracetic acid (TFA; Sigma-Aldrich). […] Cell growth inhibition assays and antimicrobial synergy determination was performed in line with Example 1.
(§4) To investigate whether there was synergy between the three bacteriocins (K1-EJ, GarKS and MP1), a checkboard antimicrobial assay was performed. The selected strains were treated for 5, 24 and 48 h with a range of concentrations of K1-EJ, GarKS and MP1 alone or in different combinations.

[2] = test system: S. haemolyticus 4072; conditions: for MIC of the component in combination: 4072
Protocol: as §1, §2, §3, §4

[3] = test system: S. haemolyticus 4070; conditions: for MIC of the component in combination: 4070
Protocol: as §1, §2, §3, §4

[4] = test system: S. haemolyticus 4073; conditions: for MIC of the component in combination: 4073
Protocol: as §1, §2, §3, §4

[5] = test system: S. haemolyticus 4069; conditions: for MIC of the component in combination: 4069
Protocol: as §1, §2, §3, §4

[6] = test system: S. haemolyticus 4068; conditions: for MIC of the component in combination: 4068
Protocol: as §1, §2, §3, §4

SMILES: C/C=C(\NC(=O)c1csc(-c2csc(-c3ccc4c(n3)-c3csc(n3)[C@H]([C@@H](C)O)NC(=O)c3csc(n3)[C@H](C(C)C)NC(=O)c3csc(n3)/C(=C/C)NC(=O)[C@H]([C@@H](C)O)NC(=O)c3csc-4n3)n2)n1)C(=O)NC[C@@H](C)O [MP1, micrococcin P1]
- MIC of the component in combination ([1]; 5 h, GarKS + MP1): 0.068 µg/mL
- MIC of the component in combination ([1]; 5 h, K1-EJ + GarKS + MP1): 0.072 µg/mL
- MIC of the component in combination ([1]; 5 h, K1-EJ + MP1): 0.042 µg/mL
- MIC of the component in combination ([1]; 24 h, GarKS + MP1): 0.63 µg/mL
- MIC of the component in combination ([1]; 24 h, K1-EJ + GarKS + MP1): 0.16 µg/mL
- MIC of the component in combination ([1]; 24 h, K1-EJ + MP1): 0.14 µg/mL
- MIC of the component in combination ([1]; 48 h, GarKS + MP1): 0.65 µg/mL
- MIC of the component in combination ([1]; 48 h, K1-EJ + GarKS + MP1): 0.33 µg/mL
- MIC of the component in combination ([1]; 48 h, K1-EJ + MP1): 0.3 µg/mL
- MIC ([1]; Staphylococcus haemolyticus, 4071, 5 h): 0.043 µg/mL
- MIC ([1]; Staphylococcus haemolyticus, 4071, 24 h): > 10 µg/mL
- MIC ([1]; Staphylococcus haemolyticus, 4071, 48 h): > 10 µg/mL
- MIC of the component in combination ([2]; 5 h, GarKS + MP1): 0.073 µg/mL
- MIC of the component in combination ([2]; 5 h, K1-EJ + GarKS + MP1): 0.068 µg/mL
- MIC of the component in combination ([2]; 5 h, K1-EJ + MP1): 0.036 µg/mL
- MIC of the component in combination ([2]; 24 h, GarKS + MP1): 0.16 µg/mL
- MIC of the component in combination ([2]; 24 h, K1-EJ + GarKS + MP1): 0.16 µg/mL
- MIC of the component in combination ([2]; 24 h, K1-EJ + MP1): 0.15 µg/mL
- MIC of the component in combination ([2]; 48 h, GarKS + MP1): 0.31 µg/mL
- MIC of the component in combination ([2]; 48 h, K1-EJ + GarKS + MP1): 0.58 µg/mL
- MIC of the component in combination ([2]; 48 h, K1-EJ + MP1): 0.16 µg/mL
- MIC ([2]; Staphylococcus haemolyticus, 4072, 5 h): 0.039 µg/mL
- MIC ([2]; Staphylococcus haemolyticus, 4072, 24 h): > 10 µg/mL
- MIC ([2]; Staphylococcus haemolyticus, 4072, 48 h): 0.63 µg/mL
- MIC of the component in combination ([3]; 5 h, GarKS + MP1): 0.02 µg/mL
- MIC of the component in combination ([3]; 5 h, K1-EJ + GarKS + MP1): 0.032 µg/mL
- MIC of the component in combination ([3]; 5 h, K1-EJ + MP1): 0.02 µg/mL
- MIC of the component in combination ([3]; 24 h, GarKS + MP1): 0.33 µg/mL
- MIC of the component in combination ([3]; 24 h, K1-EJ + GarKS + MP1): 0.28 µg/mL
- MIC of the component in combination ([3]; 24 h, K1-EJ + MP1): 0.28 µg/mL
- MIC of the component in combination ([3]; 48 h, GarKS + MP1): 0.63 µg/mL
- MIC of the component in combination ([3]; 48 h, K1-EJ + GarKS + MP1): 0.58 µg/mL
- MIC of the component in combination ([3]; 48 h, K1-EJ + MP1): 0.6 µg/mL
- MIC ([3]; Staphylococcus haemolyticus, 4070, 5 h): 0.02 µg/mL
- MIC ([3]; Staphylococcus haemolyticus, 4070, 24 h): 0.33 µg/mL
- MIC ([3]; Staphylococcus haemolyticus, 4070, 48 h): 0.13 µg/mL
- MIC of the component in combination ([4]; 5 h, GarKS + MP1): 0.02 µg/mL
- MIC of the component in combination ([4]; 5 h, K1-EJ + GarKS + MP1): 0.033 µg/mL
- MIC of the component in combination ([4]; 5 h, K1-EJ + MP1): 0.02 µg/mL
- MIC of the component in combination ([4]; 24 h, GarKS + MP1): 0.073 µg/mL
- MIC of the component in combination ([4]; 24 h, K1-EJ + GarKS + MP1): 0.078 µg/mL
- MIC of the component in combination ([4]; 24 h, K1-EJ + MP1): 0.036 µg/mL
- MIC of the component in combination ([4]; 48 h, GarKS + MP1): 0.083 µg/mL
- MIC of the component in combination ([4]; 48 h, K1-EJ + GarKS + MP1): 0.16 µg/mL
- MIC of the component in combination ([4]; 48 h, K1-EJ + MP1): 0.01 µg/mL
- MIC ([4]; Staphylococcus haemolyticus, 4073, 5 h): 0.022 µg/mL
- MIC ([4]; Staphylococcus haemolyticus, 4073, 24 h): 0.072 µg/mL
- MIC ([4]; Staphylococcus haemolyticus, 4073, 48 h): 0.14 µg/mL
- MIC of the component in combination ([5]; 5 h, GarKS + MP1): 0.16 µg/mL
- MIC of the component in combination ([5]; 5 h, K1-EJ + GarKS + MP1): 0.068 µg/mL
- MIC of the component in combination ([5]; 5 h, K1-EJ + MP1): 0.15 µg/mL
- MIC of the component in combination ([5]; 24 h, GarKS + MP1): 2.5 µg/mL
- MIC of the component in combination ([5]; 24 h, K1-EJ + GarKS + MP1): 0.33 µg/mL
- MIC of the component in combination ([5]; 24 h, K1-EJ + MP1): 2.3 µg/mL
- MIC of the component in combination ([5]; 48 h, GarKS + MP1): 5 µg/mL
- MIC of the component in combination ([5]; 48 h, K1-EJ + GarKS + MP1): 0.58 µg/mL
- MIC of the component in combination ([5]; 48 h, K1-EJ + MP1): 4.8 µg/mL
- MIC ([5]; Staphylococcus haemolyticus, 4069, 5 h): 0.15 µg/mL
- MIC ([5]; Staphylococcus haemolyticus, 4069, 24 h): > 10 µg/mL
- MIC ([5]; Staphylococcus haemolyticus, 4069, 48 h): > 10 µg/mL
- MIC of the component in combination ([6]; 5 h, GarKS + MP1): 0.02 µg/mL
- MIC of the component in combination ([6]; 5 h, K1-EJ + GarKS + MP1): 0.032 µg/mL
- MIC of the component in combination ([6]; 5 h, K1-EJ + MP1): 0.02 µg/mL
- MIC of the component in combination ([6]; 24 h, GarKS + MP1): 0.032 µg/mL
- MIC of the component in combination ([6]; 24 h, K1-EJ + GarKS + MP1): 0.078 µg/mL
- MIC of the component in combination ([6]; 24 h, K1-EJ + MP1): 0.078 µg/mL
- MIC of the component in combination ([6]; 48 h, GarKS + MP1): 0.068 µg/mL
- MIC of the component in combination ([6]; 48 h, K1-EJ + GarKS + MP1): 0.28 µg/mL
- MIC of the component in combination ([6]; 48 h, K1-EJ + MP1): 0.072 µg/mL
- MIC ([6]; Staphylococcus haemolyticus, 4068, 5 h): 0.02 µg/mL
- MIC ([6]; Staphylococcus haemolyticus, 4068, 24 h): 0.023 µg/mL
- MIC ([6]; Staphylococcus haemolyticus, 4068, 48 h): 0.078 µg/mL
